# Laboratory results: the supplement of paper PMC10307832
# Legend:
# Test in all cases: relative viability (nuclei count vs DMSO), 5 days (fraction); higher = more cells survive
# [1] = compound: Cc1ccc(-n2nc(C(C)(C)C)cc2NC(=O)Nc2ccc(OCCN3CCOCC3)c3ccccc23)cc1 [Doramapimod] + N=C(N)NC(=N)NCCc1ccccc1 [Phenformin] (partner 250 µM)
# Procedure, shortened: (§1)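 After 5 days of treatment, lung cancer cells in 1536-well plates were fixed and stained in a single step (final 0.05% Triton X-100, 1% formaldehyde, 1 ug/ml Hoechst) and their nuclei counted on 4× images. Treatment had been applied by pin tool the day after seeding as one drug alone or as a fixed anchor-drug dose with five library-drug doses (not always all listed) in √10 steps. Relative viability is the nuclei count of treated wells divided by that of vehicle wells, and values are medians of duplicate plates.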
# [2] = compound: Cc1ccc(-n2nc(C(C)(C)C)cc2NC(=O)Nc2ccc(OCCN3CCOCC3)c3ccccc23)cc1 [Doramapimod] + CC(=O)Nc1cccc(-n2c(=O)n(C3CC3)c(=O)c3c(Nc4ccc(I)cc4F)n(C)c(=O)c(C)c32)c1 [Trametinib] (partner 0.02 µM)
# Procedure, shortened: as §1
# [3] = compound: C1=CC=C2C(=C1)C=CC(=C2SSC3=C(C=CC4=CC=CC=C43)O)O [IPA-3] + COc1cccc2cc(-c3nc([C@H]4CC[C@H](C(=O)O)CC4)n4ncnc(N)c34)[nH]c12 [OSI-027] (partner 0.5 µM)
# Procedure, shortened: as §1
# [4] = compound: C1=CC=C2C(=C1)C=CC(=C2SSC3=C(C=CC4=CC=CC=C43)O)O [IPA-3] + Cc1nc(Nc2ncc(C(=O)Nc3c(C)cccc3Cl)s2)cc(N2CCN(CCO)CC2)n1 [Dasatinib] (partner 0.075 µM)
# Procedure, shortened: as §1
Cell Line,relative viability ([1]; first compound 0.02 µM),relative viability ([1]; first compound 0.06325 µM),relative viability ([1]; first compound 0.2 µM),relative viability ([1]; first compound 0.6325 µM),relative viability ([1]; first compound 2 µM),relative viability ([2]; first compound 0.02 µM),relative viability ([2]; first compound 0.06325 µM),relative viability ([2]; first compound 0.2 µM),relative viability ([2]; first compound 0.6325 µM),relative viability ([2]; first compound 2 µM),relative viability ([3]; first compound 0.2 µM),relative viability ([3]; first compound 0.6325 µM),relative viability ([3]; first compound 2 µM),relative viability ([3]; first compound 6.325 µM),relative viability ([3]; first compound 20 µM),relative viability ([4]; first compound 0.2 µM),relative viability ([4]; first compound 0.6325 µM),relative viability ([4]; first compound 2 µM),relative viability ([4]; first compound 6.325 µM),relative viability ([4]; first compound 20 µM)
NCI-H1437,0.359,0.271,0.3,0.275,0.273,0.477,0.486,0.423,0.423,0.486,1.1,0.942,0.68,0.989,1.17,0.542,0.411,0.286,0.501,0.718
NCI-H838,0.607,0.577,0.654,0.665,0.595,0.493,0.549,0.506,0.56,0.411,0.468,0.437,0.478,0.429,0.453,0.32,0.234,0.291,0.319,0.328
NCI-H1666,0.601,0.555,0.61,0.581,0.554,0.84,0.895,0.936,0.907,0.795,0.976,0.839,0.828,0.743,0.87,0.908,0.825,0.871,0.836,0.855
NCI-H1944,0.181,0.201,0.196,0.227,0.166,0.387,0.343,0.43,0.419,0.396,0.454,0.394,0.396,0.479,0.444,0.213,0.198,0.244,0.314,0.234
NCI-H2023,0.413,0.379,0.404,0.415,0.323,0.493,0.447,0.489,0.634,0.548,0.507,0.352,0.415,0.54,0.421,0.816,0.513,0.68,0.493,0.679
NCI-H1755,0.577,0.596,0.6,0.541,0.559,0.849,0.887,0.751,0.761,0.714,0.831,0.616,0.688,0.607,0.702,0.512,0.44,0.371,0.426,0.472
NCI-H23,0.786,0.781,0.788,0.828,0.656,0.287,0.346,0.402,0.415,0.376,0.591,0.544,0.577,0.571,0.533,0.598,0.795,0.861,0.724,0.617
201T,0.453,0.471,0.448,0.497,0.394,0.736,0.715,0.729,0.772,0.71,0.741,0.683,,0.743,0.755,0.576,0.57,0.604,0.616,0.65
NCI-H1734,0.332,0.344,0.344,0.355,0.289,0.599,0.611,0.599,0.587,0.514,0.619,0.632,0.507,0.612,0.56,0.564,0.486,0.459,0.507,0.444
NCI-H520,0.632,0.62,0.533,0.492,0.346,0.648,0.59,0.72,0.723,0.536,0.303,0.255,0.282,0.284,0.204,0.311,0.194,0.185,0.18,0.179
NCI-H1650,0.464,0.419,0.482,0.655,0.233,0.612,0.665,0.734,0.763,0.496,0.763,0.515,0.676,0.724,0.727,0.331,0.301,0.323,0.404,0.295
NCI-H1355,0.423,0.467,0.454,0.421,0.415,0.456,0.393,0.376,0.43,0.408,0.417,0.42,0.407,0.398,0.378,0.774,0.719,0.714,0.695,0.594
NCI-H1915,0.362,0.357,0.375,0.348,0.298,0.303,0.313,0.311,0.311,0.277,0.567,0.564,0.626,0.582,0.61,0.317,0.297,0.312,0.316,0.334
BEN,0.29,0.245,0.27,0.242,0.278,0.908,0.924,1.11,0.737,0.924,0.309,0.295,0.288,0.302,0.333,0.471,0.35,0.323,0.342,0.283
NCI-H3122,0.381,0.423,0.407,0.38,0.36,0.26,0.206,0.216,0.219,0.279,1.13,0.951,0.948,1.11,0.896,0.804,0.751,0.847,0.919,0.926
SK-MES-1,0.634,0.648,0.648,0.628,0.568,0.55,0.56,0.477,0.519,0.483,0.722,0.581,0.635,0.521,0.423,0.339,0.329,0.47,0.333,0.44
